Reference: patent US11426371B2, “Compositions and methods for treating cancer” (University of Virginia Patent Foundation, priority 2017, dated 2022)
Entries after “also recorded” stand apart in the source; their conditions may differ. Read-outs that look alike come from different tables or passages of the source.

Experiments:
[1] = target: T1, acid ceramidase (AC) (Homo sapiens, UniProt Q13510); assay: AC inhibition in lysates from cells overexpressing the enzyme; format: biochemical; design: expressed in transfected cells
T1 sequence (Q13510 143-395 limits assumed): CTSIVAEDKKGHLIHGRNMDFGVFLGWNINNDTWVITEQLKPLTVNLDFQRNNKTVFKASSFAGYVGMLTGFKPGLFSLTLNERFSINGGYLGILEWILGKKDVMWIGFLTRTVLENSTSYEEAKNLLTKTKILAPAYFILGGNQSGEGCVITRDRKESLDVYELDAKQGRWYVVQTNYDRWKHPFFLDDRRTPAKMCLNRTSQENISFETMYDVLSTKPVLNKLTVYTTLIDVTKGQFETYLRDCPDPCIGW
T1 sequence (Q13510 22-142 limits assumed): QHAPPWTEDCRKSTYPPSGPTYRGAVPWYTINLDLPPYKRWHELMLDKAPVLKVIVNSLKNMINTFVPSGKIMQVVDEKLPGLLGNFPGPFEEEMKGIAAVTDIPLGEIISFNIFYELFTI

[2] = system: AML cell lines (HL60/VCR, OCI-AML2, THP-1); assay: Viability of AML cell lines, MTS and Cell Titer Glo (FIGS. 2, 4, Table 2); format: cell-based, human; conditions: for EC50: Homo sapiens, 24 h
Procedure: (§1) Representative human AML cell lines (FIG. 2A; upper and lower panels) HL60/VCR and (FIG. 2B; upper and lower panels) OCI-AML2 were treated with SACLAC for 24 and 48 hours. Viability was assessed by MTS assay at 24 and 48 hours and apoptosis was assessed by flow cytometry at 48 hours. Upper panels represent % viability and lower panels indicate % apoptosis.
AML cell lines and normal samples (PBMCs and/or CD34+ cells) were treated for 24 hours with SACLAC (FIG. 4A-7 cell lines) and similar AC inhibitor SABRAC (2-bromo-N-((2S,3R)-1,3-dihydroxyoctadecan-2-yl)acetamide) (FIG. 4B-four cell lines). Viability was assessed by MTS and Cell Titer Glo viability assays. EC50 values (FIG. 4C) were graphed to visualize fold-change between AML and normal cells with treatment of each compound. […] Cells tested for SABRAC were HL60/VCR and OCI-AML2 AML cell lines and two normal PBMC control samples (PBMC1 and PBMC2). The same four cell types were tested for SACLAC, as well as the AML cell line THP-1 and two normal CD34+ cell control samples (CD34+1 and CD34+2).
Next, we tested the toxicity of SACLAC and a similar published AC inhibitor SABRAC^17 to normal hematopoietic cells to ensure that AML cells are selectively targeted by the compound (FIG. 4A). […] This degree of selectivity was unexpected but extremely important for potential clinical use. […] This remarkable increase in selectivity is a surprising discovery that greatly exceeds the predicted similarity in compound behavior that one may expect with a simple substitution of one halogen for another (Cl for Br).

[3] = Maximum tolerated dose in vivo; conditions: preliminary results (not shown)
Procedure: Preliminary results (not shown) indicate a maximum tolerated dose in vivo of at least about 50 mg/kg body weight. Pharmacokinetic studies are in progress to measure any accumulation of SACLAC in the blood following treatment. Initial studies are based on doses of 20 or 40 mg/kg body weight.

[4] = system: MV4-11 hAML xenograft; assay: Human AML cell line mouse xenograft model; format: in vivo; conditions: 5 mg/kg i.v. daily M to F for 18 days in β-HPCD, MV4-11-engrafted NSG mice, p<0.05
[5] = system: S1P and ceramide in HL60/VCR and OCI-AML2; assay: Lipid metabolites by mass spectrometry in AML cell lines; format: cell-based, human; conditions: HL60/VCR and OCI-AML2, 24 hours
Procedure: Representative human AML cell lines (FIG. 3A; upper and lower panels) HL60/VCR and (FIG. 3B; upper and lower panels) OCI-AML2 were treated with SACLAC for 24 hours. Concentrations of lipid metabolites were determined by mass spectrometry. *, p<0.05; **, p<0.01 (Student's t-test). Upper panels represent Lipid in pmol/mg protein and lower panels represent Ceramide in pmol/mg protein.
We also characterized lipid changes in response to SACLAC treatment in order to provide further evidence of potent AC inhibition (FIGS. 3A-3B). […] Thus, the inhibitor blocks a common mechanism of ceramide detoxification in AML and is likely to provide therapeutic benefit by facilitating ceramide accumulation and apoptotic death of these proliferative cells.

[6] = system: EOL-1; assay: Cell viability, panel of AML cell lines; format: cell-based; conditions: Homo sapiens, EOL1, EOL-1 cells
Procedure: as §1
(§2) Two representative human-derived AML cell lines, HL60/VCR and OCI-AML2, are shown. These studies have been expanded to a large panel of additional human AML cell lines (n=30, Table 1).

[7] = system: KG1a; assay: Cell viability, panel of AML cell lines; format: cell-based; conditions: Homo sapiens, KG-1a, KG1a cells
Procedure: as §1, §2

[8] = system: Human AML cell lines (n = 30); assay: Cell viability, average over the panel of AML cell lines; format: cell-based; conditions: mean over 30 human AML cell lines
Procedure: as §1, §2

[9] = system: hAML cell lines; assay: Time course studies of apoptosis and mitochondrial membrane depolarization; format: cell-based, human
[10] = target: T1, acid ceramidase (AC); assay: AC activity in AML cell lines, fluorogenic AC substrate; format: cell-based; design: endogenous in cells; host or cells: HL60/VCR, OCI-AML2, THP-1 human AML cell lines
Procedure: Ceramide analog SACLAC (FIG. 1A) inhibits AC activity in representative human AML cell lines (FIG. 1B) HL60/VCR and (FIG. 1C) OCI-AML2 after 24 hours. Activity was assessed by incubation with a fluorogenic AC substrate. Published AC inhibitor LCL204 is included for comparison.
The ordinate represents AC Activity as percent of control and the abscissa represents SACLAC or LCL204 concentration.

[11] = system: HL60/VCR and OCI-AML2 AML cell lines; assay: Apoptosis in AML cell lines by flow cytometry; format: cell-based, human; conditions: 48 hours, dose-dependent
Procedure: as §1, §2

[12] = target: T1, acid ceramidase (AC); assay: LC/MS analysis of tryptic digests of AC incubated with SACLAC; format: binding; design: expressed in transfected cells; conditions: peptide C,T,S,I,V,A,E,D,K

## CCCCCCCCCCCCCCC[C@@H](O)[C@H](CO)NC(=O)CCl [SACLAC, 2-chloro-N-((2S,3R)-1,3-dihydroxyoctadecan-2-yl)acetamide]
[1]; irreversible binding to its binding site, read-out: IC50
  IC50: 0.0467 µM
[1]; lysates from cells overexpressing the enzyme, read-out: IC50, AC inhibition
  IC50: 0.046 µM
[2]; HL60/VCR and OCI-AML2, MTS, 24 and 48 hours, dose-dependent
  viability: reduced viability
[2]; mean of AML cell lines, 24 hours, read-out: EC50 AML
  EC50: 2.27 µM
[2]; SACLAC: HL60/VCR, OCI-AML2, THP-1, SABRAC: HL60/VCR, OCI-AML2, order of cells not given, read-out: EC50, single AML cell lines (FIG. 4A, 4B)
  EC50: 2.6 µM
[3]
  MTD: ≥ 50 mg/kg
[4]
  leukemic burden (human CD45+ cells, YFP expression, percent double positive cells): reduced leukemic burden
[5]
  S1P: significantly reduced S1P
  ceramide: increased ceramide
[6]; 24 h, read-out: EC50 24 h
  EC50: 1 µM
[6]; 48 h, read-out: EC50 48 h
  EC50: 1.1 µM
[7]; 24 h, read-out: EC50 24 h
  EC50: 5.6 µM
[7]; 48 h, read-out: EC50 48 h
  EC50: 3.5 µM
[8]; 24 h, read-out: EC50 24 h, Average
  EC50: 2.3 µM
[8]; 48 h, read-out: EC50 48 h, Average
  EC50: 1.9 µM
[9]; concurrent with apoptosis induction
  mitochondrial membrane potential, time course: mitochondrial membrane depolarization
[9]; time course studies
  apoptosis, time course: apoptosis induction
[10]; HL60/VCR and OCI-AML2, 24 hours
  AC activity: decreased AC activity at all tested doses; also recorded: nearly complete inhibition at nanomolar concentrations
[10]; HL60/VCR, THP-1 and OCI-AML2 cells, 24 h
  AC activity, compared with LCL204: inhibited AC activity more potently than LCL204
[11]
  apoptosis: induced apoptosis
[12]
  covalent modification of AC peptide: formation of the expected lipid modified peptide
